# Tests used:
# [1] = system: monocarboxylate transporters; experiment: Lactate detection assay in tumor cell lines; format: cell-based; conditions: intracellular lactate, Lactate-glo kit, 24 hours incubation; cell line not stated
# Procedure: Cells are maintained in their appropriate growth medium (RPMI medium with 2 g/L glucose, 2 mM L-glutamine supplemented with 10% FBS and P/S (growth medium). 15,000-25,000 cells were seeded into white 96-well plates in growth medium and incubated for 24 hours at 37° C. and 5% CO2. A duplicate plate was also seeded for normalization by an MTS assay. Dry weight compound stocks were dissolved to a concentration of 10 mM in 100% DMSO. Compounds were further diluted in the assay medium (Lactate media: 10 mM lactate, 5% FBS, and 1×P/S; Glucose media: RPMI, 5% FBS, and 1×P/S). Growth media was changed 24 hours later to assay medium containing 10 μM compound or vehicle (DMSO) control and incubated for 24 hours. Conditioned media was collected and the cells were washed in 200 μL ice-cold PBS. […] After a 5 minute incubation, 12.5 μL Neutralization solution (1 M Trizma) is incubated for 1 minute. Intracellular lactate measurements were performed using a Lactate-glo kit (Promega). Briefly, the lactate detection reagent is mixed immediately before use and 50 μL is pipetted into each well and incubated at room temperature for 1 hour. Lactate is oxidized by enzymatic reactions to generate light. The luminescence is recorded using a Spectramax M5e plate reader and the concentration of lactate is determined using a known concentration of spiked lactate in PBS using GraphPad Prism.
# [2] = system: panel of solid and haematological tumor cell lines (e.g., Hs578t, SiHa, MDA-MB-231); experiment: MTS cell proliferation assay; format: cell-based; conditions: 72-96 hours incubation, 10 mM lactate medium or RPMI 1640 medium, cell line not given, read-out: Cytotoxicity [IC50: μM]
# Procedure: The anti-proliferation effect of MCT inhibition was investigated across a panel of solid and haematological tumor cell lines. Cells were routinely cultured in their appropriate growth medium. On day 1, between 10,000-25,000 cells/well (e.g., Hs578t: 15,000 cells/well, SiHa: 10,000 cells/well, and MDA-MB-231: 25,000 cells/well) were plated into 96-well plates. 100 μL of phosphate buffered saline solution was added to the external wells to prevent media evaporation. Plates were incubated in growth medium overnight at 37° C. in the presence of 5% CO2. On day 2, dry weight compound stocks were dissolved to a concentration of 10 mM in 100% DMSO. Compounds were further diluted in the assay medium; 10 mM lactate medium (without glucose, pyruvate, and glutamine) or RPMI 1640 medium (without pyruvate and glutamine) to generate a final dose range of 1 nM to 10 μM. Growth medium in the 96-well plate was replaced with the assay medium (10 mM lactate medium or RPMI medium or appropriate medium), and compounds were added to each well in the plate at different concentrations via serial dilution or pre-prepared solutions in assay medium. […] The absorbance of the plates was read on a Spectramax M5e plate reader using […] measurement wavelength. Dose response curves were plotted and IC50 values were calculated using GraphPad Prism. […]
IC50 [1] [µM],Compound,IC50 [2] [µM]
< 1,"CN(C(=O)NC1CCCCC1)c1cc2oc(=O)c(C(=O)O)cc2s1 [Example 7, 2-(3-cyclohexyl-1-methylureido)-5-oxo-5H-thieno[3,2-b]pyran-6-carboxylic acid]",–
–,"CN(C(=O)Nc1ccc(Cl)c(Cl)c1)c1cc2oc(=O)c(C(=O)O)cc2s1 [Example 39, 2-(3-(3,4-dichlorophenyl)-1-methylureido)-5-oxo-5H-thieno[3,2-b]pyran-6-carboxylic acid]",< 1
–,"COc1cc(Cl)ccc1NC(=O)N(C)c1cc2oc(=O)c(C(=O)O)cc2s1 [Example 18, 2-(3-(4-chloro-2-methoxyphenyl)-1-methylureido)-5-oxo-5H-thieno[3,2-b]pyran-6-carboxylic acid]",< 1
< 1,"CCOc1ccccc1NC(=O)N(C)c1cc2oc(=O)c(C(=O)O)cc2s1 [Example 10, 2-(3-(2-ethoxyphenyl)-1-methylureido)-5-oxo-5H-thieno[3,2-b]pyran-6-carboxylic acid]",–

# From patent US20220281888A1, “BICYCLIC CARBOXYLATES AS MODULATORS OF TRANSPORTERS AND USES THEREOF” (NIROGY THERAPEUTICS, INC., priority 2019, published 2022)
